Test results from patent publication US20230078820A1, “FE[…] TREATMENT OF DEMYELINATING DISEASES AND CONDITIONS” (ZOGENIX INTERNATIONAL LIMITED, priority 2021, published 2023).

Experiments:
[1] = test system: SCN1a+/− (het) mice; test: Kaplan Meier estimation of survival in SCN1a+/− (het) mice; format: in vivo, mouse; conditions: P1-P40 SCN1a+/− (het) mice, compared to both placebo and diazepam treatment; FIG. 6
Excerpt: (§1) Epilepsy is increasingly recognized as a disease of white matter pathology and damage, see Hatton, S. N. et al [Epilepsy Currents 2021 21:27-29]. To test whether fenfluramine reduced pathology and damage to myelin, a mouse model of Dravet syndrome was used. […] Heterozygous Dravet animals used in the studies reported in Examples 2 and 3 are Scn1atm1Kea 50% C57BL/6J, 50% 129S6/SvEvTac background strain mice generated as described in Miller, A. R. et al. [Genes Brain Behav. 2014 February; 13(2): 163-172]. Briefly, a heterozygous Scn1a+/− null allele was generated by targeted deletion of the first coding exon in TL1 ES cells (12956/SvEvTac). These mice were established and maintained as a co-isogenic strain on the 12956/SvEvTac (129) background. […] P ranges, stated as, e.g. P35-P37, indicate the days postnatal of the study animals Normal axonodendritic, axonosomatic and axonoaxonic synaptic pruning occurs in all mice and peaks at postnatal P21. Postnatal ages for the study animals were chosen to avoid periods of high natural demyelination and microglial activity.

[2] = test system: SCN1a+/− (Dravet) mice; test: CD11b+ activated microglia immunostaining score in brain sections, murine model of Dravet syndrome; format: in vivo, mouse; conditions: for CD11b Avg Score, Genu / CD11b Avg Score, PP / CD11b Avg Score, PP + Genu: Het mice, s.c. once daily P7 to P35-P37, FFA 15 mg/kg, diazepam 10 mg/kg; for CD11b Avg Score, Genu: genu of corpus callosum; for CD11b Avg Score, Genu / CD11b Avg Score, PP: scale 0-5; for CD11b Avg Score, PP: perforant pathway of hippocampus; for CD11b Avg Score, PP + Genu: sum of perforant pathway and genu, maximum 10, p = 0.05 Het FFA vs Het vehicle; for effect on CD11b+ activated microglia vs vehicle (saline): genu and perforant pathway of P35-P37 SCN1a+/− mice, 2-tail unequal variance t-test, FIG. 4
Excerpt: as §1
(§2) In Heterozygous Animals, drug or saline sham treatment began at age P7 (i.e., 7 days after birth) with subcutaneous administration of drug or saline injected via insulin syringes.
(§3) At day 7 all pups in each litter were administered an injection volume of 10 μl/g body weight once per day containing: 1) fenfluramine at 15 mg/kg; 2) diazepam at 10 mg/kg; or 3) vehicle (0.9% saline solution), each injection volume based on body weight.
(§4) The administration of each intervention continued every day until age P35-P37, at which time animals were sacrificed to obtain blood and brain tissues which amounted to an aggregate of 28 to 30 days of once daily dosing.
Vector ImPRESS-AP alkaline phosphatase conjugated anti-rabbit IgG (Vector Laboratories) was applied in the secondary detection step with Vector Blue AP substrate as the chromogen. Nuclear Fast Red was applied as a non-specific tissue counterstain before dehydration, clearing, and coverslip mounting steps. Vector Blue signals within finished slides were visualized with the DAPI (UV) excitation/emission channel on an Echo Revolve fluorescence microscope under the 20× objective. Non-specific Nuclear Fast Red staining was visualized under the Texas Red excitation/emission channel to provide anatomical contexts to the overlaid CD11b signals. Perfusion fixed sagittal 5 um FFPE brain sections within approximately 300 um from the midline of the right brains of the P35-P37 wildtype and SCN1A heterozygous 50% B6/50% 129S6 mice from the Fintepla/Diazepam/Saline comparator study were examined for CD11b+ microglia.
A 0-5 ascending pathologist scale was applied in scoring CD11b+ microglia in the perforant pathway of the hippocampus following the hippocampal fissure and murine white matter in the front knob, “genu,” of the corpus callosum (CC). The CC is an elongated midline structure composed of 200-800 million horizontal interconnecting cortical areas. The mature CC contains both myelinated and unmyelinated fibers as well as glial cells (astrocytes and oligodendrocytes), and neurons. The human CC has been divided into five anatomical regions, which include from front to back, the rostrum, the genu, the body or trunk-often subdivided into anterior, middle and posterior body-the isthmus, and the splenium. Most neurons in the callosal fibers release excitatory amino acids (glutamate or aspartate), however a small proportion of GABAergic neurons have been identified in mammals
The scores of the genu and perforant pathway were summed for each animal for a maximum possible score of 10. This antibody preferentially detects activated microglia over surveilling, quiescent microglia across human, rat, and mouse species. Normal, healthy mice have more basal microglial activation in the CNS compared to the normal human CNS.

[3] = target: T1, RNF43 (Homo sapiens, UniProt Q68DV7); test: 3H-fenfluramine binding to proteins expressed on reverse-transfected HEK293 cell arrays (phosphorimaging); conditions: tritium labeled fenfluramine, 1 or 5 micromolar in confirmation; HEK293 cells; FIG. 1
T1 construct: arrays of expression vectors, encoding full-length human plasma membrane and tethered secreted proteins; expressed in transfected cells; host or cells: HEK293
T1 sequence (Q68DV7 24-783): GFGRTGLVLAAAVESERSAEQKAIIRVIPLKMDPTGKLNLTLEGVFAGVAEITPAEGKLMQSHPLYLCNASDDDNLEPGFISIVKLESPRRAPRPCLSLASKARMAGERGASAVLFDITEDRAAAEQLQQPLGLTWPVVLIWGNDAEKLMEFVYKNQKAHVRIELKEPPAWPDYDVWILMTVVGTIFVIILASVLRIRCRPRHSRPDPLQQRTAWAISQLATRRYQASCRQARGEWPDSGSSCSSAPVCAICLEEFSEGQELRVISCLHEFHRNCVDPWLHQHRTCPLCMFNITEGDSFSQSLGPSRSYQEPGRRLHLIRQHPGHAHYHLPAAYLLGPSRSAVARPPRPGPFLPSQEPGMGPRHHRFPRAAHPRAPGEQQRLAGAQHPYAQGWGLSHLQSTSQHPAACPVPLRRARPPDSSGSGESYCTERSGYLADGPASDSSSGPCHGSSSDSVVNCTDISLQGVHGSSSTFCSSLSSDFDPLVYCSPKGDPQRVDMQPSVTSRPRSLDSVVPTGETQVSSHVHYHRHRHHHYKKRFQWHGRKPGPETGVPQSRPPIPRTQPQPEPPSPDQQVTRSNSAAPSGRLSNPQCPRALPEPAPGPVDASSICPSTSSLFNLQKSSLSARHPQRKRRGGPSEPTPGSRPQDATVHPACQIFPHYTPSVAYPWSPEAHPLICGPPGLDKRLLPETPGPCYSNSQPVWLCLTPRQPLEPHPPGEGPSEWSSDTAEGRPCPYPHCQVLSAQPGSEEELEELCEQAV
Procedure: (§5) Briefly, arrays of expression vectors, encoding full-length human plasma membrane and tethered secreted proteins, were spotted onto coated slides, then HEK293 cells were grown over the top of the spots and became reverse-transfected resulting in cell surface expression of each respective protein at distinct slide locations. Tritium labeled fenfluramine was applied and specific binding analyzed and confirmed using a phosphorimaging technique. […] Confirmation was achieved by repeating the study with vectors encoding RNF43 and sigma-1 receptor proteins spotted onto slides, upon which HEK293 cells were reverse-transfected. Identical slides were treated before or after cell fixation with 1 micromolar or 5 micromolar 3H-fenfluramine, 20 nanomolar 3H-naloxone, or no compound (n=2 slides per treatment).

[4] = target: T2, sigma-1 receptor (Homo sapiens, UniProt Q99720); test: as above; conditions: tritium labeled fenfluramine, 1 or 5 micromolar in confirmation; HEK293 cells
T2 construct: arrays of expression vectors, encoding full-length human plasma membrane and tethered secreted proteins; expressed in transfected cells; host or cells: HEK293
T2 sequence (Q99720 whole entry): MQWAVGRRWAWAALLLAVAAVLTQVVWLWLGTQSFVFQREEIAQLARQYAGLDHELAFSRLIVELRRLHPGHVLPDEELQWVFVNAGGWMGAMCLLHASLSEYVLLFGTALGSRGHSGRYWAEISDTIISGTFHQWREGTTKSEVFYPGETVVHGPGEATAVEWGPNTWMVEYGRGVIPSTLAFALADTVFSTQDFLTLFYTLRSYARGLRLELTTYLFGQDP
Procedure: as §5

[5] = test system: SCN1a+/− (Dravet) mice; test: DMBP (degraded myelin basic protein) immunostaining score of myelin debris in brain sections, murine model of Dravet syndrome; format: in vivo, mouse; conditions: for DMBP Avg Score, Ctx / DMBP Avg Score, Hipp / DMBP Avg Score, Hipp + Ctx: Het mice, s.c. once daily P7 to P35-P37, FFA 15 mg/kg, diazepam 10 mg/kg; for DMBP Avg Score, Ctx: cortex; for DMBP Avg Score, Ctx / DMBP Avg Score, Hipp: scale 0-5; for DMBP Avg Score, Hipp: hippocampus, p = 0.00015 Het FFA vs Het vehicle; for DMBP Avg Score, Hipp + Ctx: sum of hippocampus and cortex, maximum 10, p = 0.01 Het FFA vs Het vehicle; for effect on myelin debris (D-MBP) score vs vehicle (saline): hippocampus and cortex of P35-P37 SCN1a+/− mice, 2-tail unequal variance t-test, FIG. 2
Excerpt: as §1, §2, §3, §4
Mice at the end of the dosing period were isoflurane anaesthetized and blood was drawn through cardiac ventricular puncture without perforating the heart or vessels for subsequent perfusion fixation. Blood was processed for plasma and stored at −80C. After creating an incision in the hepatic circulation to allow perfusates an exit point, mice were flushed of remaining blood with 6 mL ice cold phosphate buffered saline through the left ventricle of the heart. Mice were then perfusion fixed with an additional 6 mL of ice cold 4% paraformaldehyde before carefully harvesting right brains into 10% neutral buffered formalin for 24 hours before transferring into phosphate buffered saline with 0.02% sodium azide as an antimicrobial preservative. Right brains were then embedded to paraffin blocks and processed as formalin fixed, paraffin embedded (FFPE) 5 μm thick sagittal sections on glass slides. These FFPE tissues were immunostained, processed, and imaged for degraded myelin and inflammatory microglia.
DMBP antibody (“degraded” Myelin Basic Protein, Anti-Myelin Basic Protein, Millipore Sigma antibody, formerly Sigma AB5864) was applied at 1:1000 dilution with no antigen retrieval. This antibody preferentially detects debris of myelin degradation in human samples without cross reacting to normal myelin. Vector ImPRESS-AP alkaline phosphatase conjugated anti-rabbit IgG (Vector Laboratories) was applied in the secondary detection step with Vector Blue AP substrate as the chromogen. Nuclear Fast Red was applied as a non-specific tissue counterstain before dehydration, clearing, and coverslip mounting steps. Vector Blue signals within finished slides were visualized with the DAPI (UV) excitation/emission channel on an Echo Revolve fluorescence microscope under the 20× objective. Non-specific Nuclear Fast Red staining was visualized under the Texas Red excitation/emission channel to provide anatomical contexts to the overlaid DMBP signals.

Structure (SMILES)	probability of survival over time [1]	CD11b Avg Score, Genu [2]	CD11b Avg Score, PP [2]	CD11b Avg Score, PP + Genu [2]	effect on CD11b+ activated microglia vs vehicle (saline) [2]	binding interaction with RNF43 [3]	binding interaction with sigma-1 [4]	DMBP Avg Score, Ctx [5]	DMBP Avg Score, Hipp [5]	DMBP Avg Score, Hipp + Ctx [5]	effect on myelin debris (D-MBP) score vs vehicle (saline) [5]
CCNC(C)Cc1cccc(C(F)(F)F)c1 (racemic) [FFA, (RS)-N-ethyl-1-[3-(trifluoromethyl)phenyl]propan-2-amine]	increases the probability of survival	2.54	2.77	5.31	reduced activated microglia	interactions were identified in the primary screen	interactions were identified in the primary screen	2.54	2.62	5.15	significantly reduced the myelin debris (D-MBP) score
CN1C(=O)CN=C(c2ccccc2)c2cc(Cl)ccc21 [Diazepam, diazepam]		3.00	3.67	6.67	not significant			2.44	3.22	5.67	not significant
